Results as given in patent US20240116946A1 (Gilead Sciences, Inc., priority 2022, published 2024).
Like-named read-outs stand apart in the source and are kept apart here.

Tests used:
[1] = molecular target: recombinant SARS-CoV-2 Main protease (Mpro) (Severe acute respiratory syndrome coronavirus 2 (2019-nCoV) (SARS-CoV-2), UniProt P0DTD1); test: Cov Mpro Biochemical IC50 Assay; settings: fluorogenic peptide substrate 40 μM
[2] = test system: SARS-CoV-2-NLuc; test: microbe, parasite or virus in culture; format: cell-based, SARS Coronavirus 2
[3] = recombinant SARS-CoV-2 Mpro 7.5 nM, read-out: MPro IC50
[4] = Severe acute respiratory syndrome coronavirus, 48 h, read-out: MPro EC50
[5] = MPro IC50, recombinant SARS-CoV-2 Mpro 7.5 nM
[6] = Severe acute respiratory syndrome coronavirus, 48 h; read-out: MPro EC50

SMILES | IC50 [1, 3] | EC50 [2, 4] | IC50 [1, 5] | EC50 [2, 6] | EC50 ([2]; read-out: MPro EC50)
O=c1[nH]c2cc(-c3c(Cl)cc(Cl)c4c3CCO4)sc2c(=O)n1-c1cncc2ccccc12 [Example 647] | 10.9 nM | 25.9 nM | – | – | –
Cc1cc(C)c(-c2cc3[nH]c(=O)n(-c4cncc5ccccc45)c(=O)c3s2)cc1C#N [Example 648] | 99.5 nM | 188 nM | – | – | –
COc1cc(-c2cc3[nH]c(=O)n(-c4cncc5cc(C(=O)N6CCOCC6)sc45)c(=O)c3s2)c(Cl)cc1F [Example 649] | 7.91 nM | 195 nM | – | – | –
COc1cc(-c2cc3[nH]c(=O)n(-c4cncc5ccccc45)c(=O)c3cc2F)c(Cl)cc1F [Example 650, 7-(2-chloro-4-fluoro-5-methoxy-phenyl)-6-fluoro-3-(4-isoquinolyl)-1H-quinazoline-2,4-dione] | – | – | 31.7 nM | 33.9 nM | –
COc1cc(F)cc(Cl)c1-c1ccc2c(=O)n(-c3cncc4ccccc34)c(=O)[nH]c2c1 [Example 651] | 336 nM | 135 nM | – | – | –
COc1cc(-c2cc3[nH]c(=O)n(-c4cncc5nc(C)sc45)c(=O)c3s2)c(Cl)cc1F [Example 652] | 22.5 nM | 48.1 nM | – | – | –
COc1cc(-c2cc3c(s2)c(=O)n(-c2cncc4ccsc24)c(=O)n3CC#N)c(Cl)cc1F [Example 653] | 2.58 nM | 4.45 nM | – | – | –
COc1cc(-c2cc3c(s2)c(=O)n(-c2cncc4ccsc24)c(=O)n3CCC#N)c(Cl)cc1F [Example 654] | 3.87 nM | 2.42 nM | – | – | –
COc1cc(-c2cc3c(s2)c(=O)n(-c2cncc4ccsc24)c(=O)n3CC2(C#N)CC2)c(Cl)cc1F [Example 655] | 3.4 nM | 3.31 nM | – | – | –
Cn1ncc2cncc(-n3c(=O)[nH]c4cc(-c5c(Cl)cc(Cl)c6c5CCO6)sc4c3=O)c21 [Example 656] | 12 nM | – | – | 23.9 nM | –
COc1cc(-c2cc3[nH]c(=O)n(-c4cncc5cnn(C)c45)c(=O)c3s2)c(C)cc1F [Example 657] | 14.4 nM | 27.4 nM | – | – | –
COc1cc(-c2cc3c(s2)c(=O)n(-c2cncc4cnn(C)c24)c(=O)n3CCCC#N)c(Cl)cc1F [Example 658] | 14.4 nM | 22.8 nM | – | – | –
COc1cc(-c2cc3c(s2)c(=O)n(-c2cncc4ccccc24)c(=O)n3CCCC#N)c(Cl)cc1F [Example 660] | 17.6 nM | 16.7 nM | – | – | –
COc1cc(-c2cc3c(s2)c(=O)n(-c2cncc4ccccc24)c(=O)n3CC2(CC#N)CC2)c(Cl)cc1F [Example 661] | 29.5 nM | 37 nM | – | – | –
Cn1ncc2cncc(-n3c(=O)[nH]c4cc(-c5ccc(F)cc5Cl)sc4c3=O)c21 [Example 662] | 40.5 nM | 81.7 nM | – | – | –
Cn1ncc2cncc(-n3c(=O)[nH]c4cc(-c5cc(F)ccc5Cl)sc4c3=O)c21 [Example 663] | 14.4 nM | 16.6 nM | – | – | –
Cn1ncc2cncc(-n3c(=O)c4sc(-c5cc(F)ccc5Cl)cc4n(CC#N)c3=O)c21 [Example 664] | 5.24 nM | 11.4 nM | – | – | –
COc1cc(-c2cc3c(s2)c(=O)n(-c2cncc4cnn(C)c24)c(=O)n3CCC#N)c(C)cc1F [Example 665] | 7.27 nM | 10.5 nM | – | – | –
COc1cc(-c2cc3[nH]c(=O)n(-c4cncc5cnn(C)c45)c(=O)c3s2)c(C)cc1Cl [Example 666] | 24 nM | – | – | 55.6 nM | –

SMILES | IC50 [1, 3] | EC50 [2, 4] | IC50 [1, 5] | EC50 [2, 6] | EC50 ([2]; read-out: MPro EC50)
COc1cc(-c2cc3[nH]c(=O)n(-c4cncc5cnn(C)c45)c(=O)c3s2)c(Cl)cc1Cl [Example 667] | 14 nM | 18.7 nM | – | – | –
COc1cnc(Cl)c(-c2cc3[nH]c(=O)n(-c4cncc5cnn(C)c45)c(=O)c3s2)c1 [Example 668] | 23 nM | 123 nM | – | – | –
Cc1cnc(Cl)c(-c2cc3[nH]c(=O)n(-c4cncc5cnn(C)c45)c(=O)c3s2)c1 [Example 669] | 336 nM | > 1000 nM | – | – | –
Cn1ncc2c(-c3cc4[nH]c(=O)n(-c5cncc6cnn(C)c56)c(=O)c4s3)c(Cl)ccc21 [Example 670] | 146 nM | 585 nM | – | – | –
COc1cc(-c2cc3[nH]c(=O)n(-c4cncc5sc(C(C)(C)O)c(C)c45)c(=O)c3s2)c(Cl)cc1F [Example 671] | 5.85 nM | 7.44 nM | – | – | –
COc1cc(-c2cc3[nH]c(=O)n(-c4cncc5ccccc45)c(=O)c3cc2OC)c(Cl)cc1F [Example 672, 7-(2-chloro-4-fluoro-5-methoxyphenyl)-3-(isoquinolin-4-yl)-6-methoxyquinazoline-2,4(1H,3H)-dione] | 37.8 nM | 23.8 nM | – | – | –
N#Cc1cncc(-c2cccc(Cl)c2-c2cc3[nH]c(=O)n(-c4cncc5ccccc45)c(=O)c3s2)c1 [Example 673] | 4.08 nM | 3.71 nM | – | – | –
Cc1csc2cncc(-n3c(=O)[nH]c4cc(-c5c(Cl)cccc5-c5cncc(C#N)c5)sc4c3=O)c12 [Example 674] | 3.85 nM | 2.82 nM | – | – | –
CCOc1cc(-c2cc(OC)c(F)cc2Cl)cc2[nH]c(=O)n(-c3cncc4ccccc34)c(=O)c12 [Example 676] | 31.6 nM | 25.3 nM | – | – | –
Cn1ncc2cncc(-n3c(=O)[nH]c4cc(-c5c(Cl)cccc5-c5cncc(C#N)c5)sc4c3=O)c21 [Example 677] | 7.27 nM | – | – | 45 nM | –
COc1cc(-c2cc(OC)c3c(=O)n(-c4cncc5ccccc45)c(=O)[nH]c3c2)c(C#N)cc1F [Example 679] | 25.4 nM | 80.1 nM | – | – | –
COc1cc(-c2cc(OC)c3c(=O)n(-c4cncc5ccccc45)c(=O)[nH]c3c2)c(C#N)cc1F [Example 680] | 21.7 nM | – | – | – | 20.8 nM
N#CCn1c(=O)n(-c2cncc3ccccc23)c(=O)c2sc(-c3c(Cl)cccc3-c3cncc(C#N)c3)cc21 [Example 681] | 4.49 nM | 11.1 nM | – | – | –
COc1cc(-c2cc3[nH]c(=O)n(-c4cncc5cccc(F)c45)c(=O)c3cc2OC)c(C#N)cc1F [Example 682] | 20.2 nM | 33 nM | – | – | –
COc1cc(-c2cc3[nH]c(=O)n(-c4cncc5ccn(C)c45)c(=O)c3cc2OC)c(C#N)cc1F [Example 683] | 8.88 nM | 43.7 nM | – | – | –
COc1cc(-c2cc3[nH]c(=O)n(-c4cncc5cccnc45)c(=O)c3cc2OC)c(C#N)cc1F [Example 684] | 13.5 nM | 119 nM | – | – | –
N#Cc1ccc(Cl)cc1-c1cc2[nH]c(=O)n(-c3cncc4ccccc34)c(=O)c2s1 [Example 685] | 12 nM | 69.2 nM | – | – | –
COc1cc(-c2cc3c(s2)c(=O)n(-c2cncc4[nH]c(=O)n(C)c24)c(=O)n3CCC#N)c(Cl)cc1F [Example 687] | 4.92 nM | 148 nM | – | – | –
COc1cc(-c2cc3c(s2)c(=O)n(-c2cncc4nnn(C)c24)c(=O)n3CC2(C#N)CC2)c(Cl)cc1F [Example 688] | 9.78 nM | 14.5 nM | – | – | –

SMILES | IC50 [1, 3] | EC50 [2, 4] | IC50 [1, 5] | EC50 [2, 6] | EC50 ([2]; read-out: MPro EC50)
COc1cc(-c2cc3c(s2)c(=O)n(-c2cncc4ccccc24)c(=O)n3Cc2ncn(C)n2)c(Cl)cc1F [Example 689] | 32 nM | 30 nM | – | – | –
COc1cc(-c2cc3c(s2)c(=O)n(-c2cncc4ccccc24)c(=O)n3CC2(C#N)CCC2)c(Cl)cc1F [Example 690] | 47 nM | 98.8 nM | – | – | –
COc1cc(-c2cc3c(s2)c(=O)n(-c2cncc4cnn(C5CC5)c24)c(=O)n3CC#N)c(Cl)cc1F [Example 691] | 3.07 nM | 2.91 nM | – | – | –
COc1cc(-c2cc3c(s2)c(=O)n(-c2cncc4nnn(C5CC5)c24)c(=O)n3CC2(C#N)CC2)c(Cl)cc1F [Example 692] | 4.35 nM | 2.44 nM | – | – | –
COc1cc(-c2cc3c(s2)c(=O)n(-c2cncc4cnn(C)c24)c(=O)n3CC#N)c(C#N)cc1F [Example 693] | 2.56 nM | 94.2 nM | – | – | –
COc1cc(-c2cc3c(s2)c(=O)n(-c2cncc4ccccc24)c(=O)n3[C@H]2C[C@@H](C#N)C2)c(Cl)cc1F [Example 694] | 19.3 nM | 61 nM | – | – | –
COc1cc(-c2cc3c(s2)c(=O)n(-c2cncc4ccccc24)c(=O)n3[C@H]2C[C@H](C#N)C2)c(Cl)cc1F [Example 695] | 16.2 nM | 45.9 nM | – | – | –
COc1cc(-c2cc3c(s2)c(=O)n(-c2cncc4ccn(C)c(=O)c24)c(=O)n3CC#N)c(Cl)cc1F [Example 696] | 3.15 nM | 29.2 nM | – | – | –
COc1cc(-c2cc3c(s2)c(=O)n(-c2cncc4cnn(C)c24)c(=O)n3CC(C)(C)C#N)c(Cl)cc1F [Example 697] | 9.01 nM | 9.62 nM | – | – | –
COc1cc(-c2cc3c(s2)c(=O)n(-c2cncc4ccccc24)c(=O)n3CC(C)(C)C#N)c(Cl)cc1F [Example 698] | 7.1 nM | 14.1 nM | – | – | –
COc1cc(-c2cc3[nH]c(=O)n(-c4cncc5c(CO)nn(C)c45)c(=O)c3s2)c(Cl)cc1F [Example 699] | 10.6 nM | 470 nM | – | – | –
Cn1ncc2cncc(-n3c(=O)[nH]c4cc(-c5cc(F)ccc5C#N)sc4c3=O)c21 [Example 700] | 54.6 nM | – | – | 466 nM | –
COc1cc(-c2cc3c(s2)c(=O)n(-c2cncc4cccc(F)c24)c(=O)n3CC#N)c(Cl)cc1F [Example 703] | 3.58 nM | 3.74 nM | – | – | –
COc1cc(-c2nc3[nH]c(=O)n(-c4cncc5ccccc45)c(=O)c3s2)c(Cl)cc1F [Example 704] | – | – | 34.4 nM | 248 nM | –
COc1cc(-c2nc3c(s2)c(=O)n(-c2cncc4ccccc24)c(=O)n3CC#N)c(Cl)cc1F [Example 705] | 4.74 nM | 8.11 nM | – | – | –
COc1cc(-c2cc3[nH]c(=O)n(-c4cncc5c4c(C)cn5C)c(=O)c3s2)c(Cl)cc1F [Example 706] | 5.93 nM | 6.53 nM | – | – | –
COc1cc(-c2cc3c(s2)c(=O)n(-c2cncc4nc(C)n(C)c24)c(=O)n3CC2(C#N)CC2)c(Cl)cc1F [Example 707] | 2.13 nM | 8.9 nM | – | – | –
COc1cc(-c2cc3c(s2)c(=O)n(-c2cncc4cccnc24)c(=O)n3CC#N)c(Cl)cc1F [Example 708] | 4.41 nM | 8.71 nM | – | – | –
